Measurements: patent US12584906B2, “Coating agent for inducing differentiation of pluripotent stem cells into brain microvascular endothelium-like cells and use thereof” (PUBLIC UNIVERSITY CORPORATION NAGOYA CITY UNIVERSITY, priority 2020, dated 2026)

Legend:
[1] = tested on: iBMECs derived from 610B1 strain; test: Protein expression of BMEC markers by immunostaining; assay type: cell-based, human; details: CDH5, P-gp, BCRP, ZO-1, Occludin, Claudin 5; day 10 of differentiation, FIG. 8
Procedure: Matrigel-iBMECs or LN221F-iBMECs (on day 10 of differentiation) derived from 610B1 strain were analyzed by immunostaining in order to analyze the expression levels and localizations of BMEC marker proteins. For Zonula Occludens-1 (ZO-1) and Occludin, the cells on a 96-well plate were fixed in 4 w/v % paraformaldehyde for 15 minutes at room temperature, washed twice with glycine-containing PBS, and then permeabilized with 0.1 w/v % Triton X-100-containing PBS for 25 minutes at room temperature. After blocking for 20 min at room temperature with 5% donkey serum, each primary antibody was used for reaction for 2 hours at room temperature. After washed three times with PBS, the cells were reacted with the secondary antibody, which had been diluted 200-fold, for 60 minutes at room temperature. At this time, 1 μg/mL DAPI as a nuclear staining reagent was mixed in the reaction at the same time. Thereafter, the cells were washed three times with PBS, and were analyzed with an Operetta high content imaging system. […]

[2] = tested on: iBMECs derived from 610B1 strain; test: Test for permeability of FD4 or LY, 610B1 strain; assay type: cell-based, human; details: 60 minutes, day 10 of differentiation
Procedure: (§1) FD4 or LY permeability was tested on Matrigel-iBMECs and LN221F-iBMECs derived from each of 610B1 or 648A1 strain. The number of samples was 6. On day 10 of differentiation, the culture medium was replaced with a transport buffer (HBSS containing 10 mM HEPES solution), and the cells were cultured at 37° C. for 20 minutes. The transport buffer containing 1 mg/mL FD4 or 300 μM LY was added to the apical side. After incubation at 37° C. for 60 minutes, 100 μL of the solution was collected from the basolateral side. The volume of transport buffer was 300 μL on the apical side and 800 μL on the basal side. The fluorescence intensity of FD4 or LY was measured with a Synergy HTX multimode plate reader and analyzed by Gen5 data analysis software.

P-gp = target: T1, P-gp (Homo sapiens, UniProt P08183); test: Substrate uptake test, P-gp function (rhodamine 123 with or without cyclosporine A); assay type: cell-based; details: 10 μM rhodamine 123, 10 μM cyclosporine A, 60 minutes at 37° C., FIG. 9
T1 construct: endogenous in cells; host or cells: Matrigel-iBMECs or LN221F-iBMECs derived from 610B1 strain (iPS cells), day 10 of differentiation
Procedure: (§2) For functional analysis of P-gp and BCRP as efflux transporters, Matrigel-iBMECs or LN221F-iBMECs (on day 10 of differentiation) derived from 610B1 strain were tested for substrate uptake. As the substrate, rhodamine 123 or Hoechst 33342 was used. The culture medium was removed and the cells on a 96-well plate were pre-incubated in a transport buffer for 15 minutes at 37° C. Note that the number of samples was 6. The cells were incubated, in the presence or absence of 10 μM cyclosporine A (CsA), an inhibitor of P-gp, or 20 μM Ko 143, an inhibitor of BCRP, in a transport buffer containing 10 μM rhodamine 123 or 10 μM Hoechst 33342 for 60 minutes at 37° C. The cells were then washed three times with PBS and lysed in PBS containing 5 w/v % Triton X-100. The fluorescence intensities of rhodamine 123 or Hoechst 33342 were measured with a Synergy HTX multimode plate reader and analyzed by Gen5 data analysis software.

[3] = tested on: iBMECs derived from 648A1 strain; test: Test for permeability of FD4 or LY, 648A1 strain; assay type: cell-based, human; details: 60 minutes, day 10 of differentiation
Procedure: as §1

[4] = tested on: iBMECs derived from 610B1 strain; test: Time-course change in TEER values, 610B1 strain; assay type: cell-based, human; details: FIG. 3
Procedure: (§3) A coating layer was formed using each of the above-described coating agents. Matrigel was diluted 30-fold with a maintenance medium for human iPS cells on ice, poured onto a well plate, and allowed to stand at 37° C. for 30 minutes or longer to form a coating layer. FBN, VTN-N, LN221F, LN411F, or LN511F was diluted with PBS so as to be 1 μg/cm^2, poured onto a well plate, and allowed to stand at 37° C. for 1 hour to 2 hours to form a coating layer. In addition, a mixture of Fibronectin and Collagen type IV was diluted with PBS so as to be 100 μg/mL and 400 μg/mL, respectively, poured onto a Transwell insert, and allowed to stand at 37° C. for 2 hours or longer to form a coating layer. […]
(§4) TEER values of iBMECs (on day 10 of differentiation) derived from 610B1 strain, which cells had been induced and differentiated on Matrigel or FBN, VTN-N, LN221F, LN411F, or LN511F, were measured. The number of samples was 3, and relative TEER values of iBMECs induced and differentiated on FBN, VTN-N, LN221F, LN411F, or LN511F were determined based on the TEER values of iBMECs induced and differentiated on Matrigel (hereinafter, also referred to as “Matrigel-iBMECs”). […] The number of samples was set to 6, and the time-course change of the TEER values was determined. The TEER values were measured using a Millicell ERS-2 (chopstick type) according to the attached instructions. […]

[5] = tested on: iBMECs derived from 610B1 strain; test: Relative TEER values of iBMECs induced and differentiated on each coating layer (day 10 of differentiation); assay type: cell-based, human; details: for TEER value compared with iBMECs induced and differentiated on Matrigel: coating 1 μg/cm^2, FIG. 2
Procedure: A coating layer was formed using each of the above-described coating agents. Matrigel was diluted 30-fold with a maintenance medium for human iPS cells on ice, poured onto a well plate, and allowed to stand at 37° C. for 30 minutes or longer to form a coating layer. FBN, VTN-N, LN221F, LN411F, or LN511F was diluted with PBS so as to be 1 μg/cm^2, poured onto a well plate, and allowed to stand at 37° C. for 1 hour to 2 hours to form a coating layer. In addition, a mixture of Fibronectin and Collagen type IV was diluted with PBS so as to be 100 μg/mL and 400 μg/mL, respectively, poured onto a Transwell insert, and allowed to stand at 37° C. for 2 hours or longer to form a coating layer.
FIG. 1 is a scheme illustrating a protocol for differentiating human iPS cells into iBMECs. […] The differentiation induction was started in a state in which at the time of passage, the cells were seeded on a culture dish coated with each coating agent and cultured in StemSure hPSC medium containing […] FGF2 until the proportion of undifferentiated colonies reached about 60 to 70% (day 0 of differentiation). […]
TEER values of iBMECs (on day 10 of differentiation) derived from 610B1 strain, which cells had been induced and differentiated on Matrigel or FBN, VTN-N, LN221F, LN411F, or LN511F, were measured. The number of samples was 3, and relative TEER values of iBMECs induced and differentiated on FBN, VTN-N, LN221F, LN411F, or LN511F were determined based on the TEER values of iBMECs induced and differentiated on Matrigel (hereinafter, also referred to as “Matrigel-iBMECs”). In addition, for each of 610B1 strain or 648A1 strain, the TEER values of Matrigel-iBMECs or iBMECs induced and differentiated on LN221F (hereinafter, also referred to as “LN221F-iBMECs”) were measured from day 1 after seeding (day 9 of differentiation) to day 10 after seeding (day 18 of differentiation). The number of samples was set to 6, and the time-course change of the TEER values was determined. The TEER values were measured using a Millicell ERS-2 (chopstick type) according to the attached instructions. […]

[6] = tested on: iBMECs derived from 648A1 strain; test: Time-course change in TEER values, 648A1 strain; assay type: cell-based, human; details: FIG. 4
Procedure: as §3, §4

[7] = tested on: iBMECs derived from strain 610B1; test: Analysis of expression levels of BMEC marker genes by RT-q PCR; assay type: cell-based, human; details: CDHS, MDR1, BCRP, ZO-1, Occludin, GLUT1, LAT1; day 10 of differentiation, corrected with HPRT1, FIG. 7
Procedure: Extraction was performed according to the attached instructions of Agencourt (registered trademark) RNAdvance Tissue Kit.
Complementary DNA (cDNA) was synthesized using ReverTra Ace (registered trademark) qPCR RT Master Mix according to the attached instructions.
The levels of gene expression in Matrigel-iBMECs or LN221F-iBMECs derived from strain 610B1 (on day 10 of differentiation) or human-derived primary BMECs (hereinafter, also referred to as “hBMECs”) were analyzed by RT-q PCR. The number of samples for Matrigel-iBMECs or LN221F-iBMECs was 3, and the number of samples for hBMECs was 1. RT-q PCR was performed with KAPA SYBR Fast qPCR Kit while using cDNA as a template according to the attached instructions. The results obtained were corrected using HPRT1 as an internal control. The relative expression levels of mRNA in LN221F-iBMECs or hBMECs were determined based on the expression levels of mRNA in Matrigel-iBMECs. […]

BCRP = target: T2, BCRP (Homo sapiens, UniProt Q9UNQ0); test: Substrate uptake test, BCRP function (Hoechst 33342 with or without Ko 143); assay type: cell-based; details: 10 μM Hoechst 33342, 20 μM Ko 143, 60 minutes at 37° C., FIG. 10
T2 construct: endogenous in cells; host or cells: Matrigel-iBMECs or LN221F-iBMECs derived from 610B1 strain (iPS cells), day 10 of differentiation
T2 sequence (Q9UNQ0 1-655): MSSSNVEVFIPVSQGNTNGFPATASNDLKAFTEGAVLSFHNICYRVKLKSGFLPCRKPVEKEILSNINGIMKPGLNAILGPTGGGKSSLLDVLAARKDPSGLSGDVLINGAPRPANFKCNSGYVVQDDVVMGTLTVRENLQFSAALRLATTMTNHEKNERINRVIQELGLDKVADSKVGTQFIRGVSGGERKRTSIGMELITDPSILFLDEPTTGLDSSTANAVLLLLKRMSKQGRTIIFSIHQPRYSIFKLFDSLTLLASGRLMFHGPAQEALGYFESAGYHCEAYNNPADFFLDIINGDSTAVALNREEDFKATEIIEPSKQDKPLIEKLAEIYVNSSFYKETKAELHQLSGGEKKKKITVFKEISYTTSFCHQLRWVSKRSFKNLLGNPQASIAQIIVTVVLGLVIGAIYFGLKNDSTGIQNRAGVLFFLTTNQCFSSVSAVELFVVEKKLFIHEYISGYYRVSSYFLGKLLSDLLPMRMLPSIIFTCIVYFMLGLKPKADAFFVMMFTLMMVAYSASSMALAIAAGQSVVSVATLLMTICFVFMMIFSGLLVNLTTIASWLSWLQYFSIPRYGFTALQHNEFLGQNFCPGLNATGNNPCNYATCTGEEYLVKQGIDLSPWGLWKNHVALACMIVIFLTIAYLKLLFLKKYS
Procedure: as §2

T1 sequence (P08183 whole entry): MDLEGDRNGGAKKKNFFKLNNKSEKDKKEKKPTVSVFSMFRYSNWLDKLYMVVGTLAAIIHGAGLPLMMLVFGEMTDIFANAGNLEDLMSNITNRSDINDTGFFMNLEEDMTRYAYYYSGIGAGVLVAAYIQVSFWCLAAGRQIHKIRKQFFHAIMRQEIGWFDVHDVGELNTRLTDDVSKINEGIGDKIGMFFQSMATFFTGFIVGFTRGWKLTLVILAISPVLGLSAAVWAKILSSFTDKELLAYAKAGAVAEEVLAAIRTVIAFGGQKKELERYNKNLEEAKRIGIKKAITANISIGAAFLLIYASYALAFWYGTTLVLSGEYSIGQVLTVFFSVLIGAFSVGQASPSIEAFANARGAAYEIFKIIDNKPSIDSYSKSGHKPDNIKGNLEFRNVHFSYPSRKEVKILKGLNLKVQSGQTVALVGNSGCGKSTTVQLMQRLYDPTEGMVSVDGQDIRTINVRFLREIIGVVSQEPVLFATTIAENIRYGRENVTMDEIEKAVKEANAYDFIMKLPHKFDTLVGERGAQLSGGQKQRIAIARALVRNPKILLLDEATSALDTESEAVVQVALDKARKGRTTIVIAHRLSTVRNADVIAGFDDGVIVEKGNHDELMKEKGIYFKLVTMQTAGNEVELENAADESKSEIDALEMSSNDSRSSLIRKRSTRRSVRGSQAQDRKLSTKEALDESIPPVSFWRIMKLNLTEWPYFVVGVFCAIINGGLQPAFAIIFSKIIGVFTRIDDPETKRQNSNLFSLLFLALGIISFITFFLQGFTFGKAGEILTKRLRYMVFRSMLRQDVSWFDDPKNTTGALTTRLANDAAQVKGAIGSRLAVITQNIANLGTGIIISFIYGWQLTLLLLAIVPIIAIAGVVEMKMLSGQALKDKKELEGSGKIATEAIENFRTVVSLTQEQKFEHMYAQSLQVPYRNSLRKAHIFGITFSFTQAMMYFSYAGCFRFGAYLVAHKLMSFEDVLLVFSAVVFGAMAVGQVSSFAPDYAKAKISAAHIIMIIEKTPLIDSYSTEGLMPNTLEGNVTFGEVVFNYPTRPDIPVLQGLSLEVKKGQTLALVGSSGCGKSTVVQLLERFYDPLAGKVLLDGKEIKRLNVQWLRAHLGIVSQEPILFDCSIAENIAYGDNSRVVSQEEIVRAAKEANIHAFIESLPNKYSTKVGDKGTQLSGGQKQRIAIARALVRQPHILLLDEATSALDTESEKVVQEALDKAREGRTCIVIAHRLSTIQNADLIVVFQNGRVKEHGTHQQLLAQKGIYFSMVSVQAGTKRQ

| Substance | protein expression levels and localizations of BMEC markers compared with Matrigel-iBMECs [1] | permeability coefficient of LY compared with Matrigel-iBMECs ([2]; 300 μM LY apical, FIG. 6) | permeability coefficient of FD4 compared with Matrigel-iBMECs ([2]; 1 mg/mL FD4 apical, FIG. 5) | accumulation of substrate in the presence of the inhibitor versus absence (P-gp function) (P-gp) | permeability coefficient of LY compared with Matrigel-iBMECs ([3]; 300 μM LY apical, FIG. 6) | permeability coefficient of FD4 compared with Matrigel-iBMECs ([3]; 1 mg/mL FD4 apical, FIG. 5) | TEER value compared with Matrigel-iBMECs over a long period of time ([4]; day 1 to day 10 after seeding) | TEER value ([4]; over a long period of time) | relative TEER value (Matrigel-iBMECs set to 1.0) ([5]; FIG. 2) | TEER value compared with iBMECs induced and differentiated on Matrigel [5] | TEER value compared with Matrigel-iBMECs over a long period of time ([6]; day 1 to day 10 after seeding) | TEER value ([6]; over a long period of time) | mRNA expression level of BMEC markers compared with Matrigel-iBMECs [7] | accumulation of substrate in the presence of the inhibitor versus absence (BCRP function) (BCRP) |
| --- | --- | --- | --- | --- | --- | --- | --- | --- | --- | --- | --- | --- | --- | --- |
| Laminin-221 fragment [LN221F] | almost equivalent | lower permeability coefficient | lower permeability coefficient | larger | lower permeability coefficient | lower permeability coefficient | higher TEER value | ≥ 1000 Ω×cm^2 | about 2 times | higher TEER value | higher TEER value | ≥ 1000 Ω×cm^2 | almost equivalent | larger |
| N-terminal Vitronectin [VTN-N] |  |  |  |  |  |  |  |  |  | higher TEER value |  |  |  |  |
